Values of other authors as cited in US20070009535A1 (priority 2005, published 2007).

Settings: several oncolytics tested in preclinical models

Compound: O[C@@H](COc1cccc2ncccc12)CN1CCN([C@@H]2c3ccccc3[C@@H]3[C@H](c4ccccc42)C3(F)F)CC1 [zosuquidar]
- pharmacokinetic interactions with oncolytics: minimal pharmacokinetic (PK) interactions
